Data taken from patent US9938261B2, “Heterocyclic compounds and methods of use thereof” (AMBIT BIOSCIENCES CORPORATION, priority 2011, dated 2018).
Like-named read-outs stand apart in the source and are kept apart here.

Key:
FLT3 = target: T1, FLT3 (Homo sapiens, UniProt P36888); test: Competition binding assay, FLT3 Kd
T1 construct: made in house
T1 sequence (P36888 27-993): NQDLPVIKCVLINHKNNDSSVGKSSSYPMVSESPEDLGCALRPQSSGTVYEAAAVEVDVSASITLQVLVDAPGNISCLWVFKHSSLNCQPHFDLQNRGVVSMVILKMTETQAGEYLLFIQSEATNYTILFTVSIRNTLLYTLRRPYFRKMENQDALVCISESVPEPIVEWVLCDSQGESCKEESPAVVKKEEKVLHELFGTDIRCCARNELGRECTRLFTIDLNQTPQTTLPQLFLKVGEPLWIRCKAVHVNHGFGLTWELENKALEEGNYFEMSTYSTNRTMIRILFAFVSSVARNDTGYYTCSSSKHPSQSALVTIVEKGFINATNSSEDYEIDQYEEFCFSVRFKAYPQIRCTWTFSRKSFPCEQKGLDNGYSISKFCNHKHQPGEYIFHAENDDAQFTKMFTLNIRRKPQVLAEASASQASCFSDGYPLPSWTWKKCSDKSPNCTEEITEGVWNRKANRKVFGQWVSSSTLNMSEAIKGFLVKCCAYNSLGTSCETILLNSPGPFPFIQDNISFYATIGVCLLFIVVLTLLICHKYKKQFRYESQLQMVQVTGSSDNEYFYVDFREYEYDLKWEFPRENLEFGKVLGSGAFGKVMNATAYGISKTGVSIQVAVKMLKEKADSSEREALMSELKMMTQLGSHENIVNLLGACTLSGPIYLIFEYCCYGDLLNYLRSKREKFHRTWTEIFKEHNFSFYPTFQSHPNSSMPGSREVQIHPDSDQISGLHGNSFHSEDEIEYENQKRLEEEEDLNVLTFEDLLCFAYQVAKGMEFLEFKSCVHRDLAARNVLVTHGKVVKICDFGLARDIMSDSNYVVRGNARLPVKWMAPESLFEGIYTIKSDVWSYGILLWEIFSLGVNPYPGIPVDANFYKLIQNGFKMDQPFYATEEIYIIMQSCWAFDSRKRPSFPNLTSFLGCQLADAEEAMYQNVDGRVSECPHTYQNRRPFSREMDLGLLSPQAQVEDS
Procedure, shortened: (§1)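 Kinases as T7-phage fusions or HEK-293-expressed DNA-tagged constructs competed against immobilized biotinylated ligand on streptavidin beads, 1 h at room temperature in binding buffer. Bound kinase eluted and quantified by qPCR; Kd from eleven-point threefold dilution series.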

KIT = target: T2, KIT (Homo sapiens, UniProt P10721); test: Competition binding assay, KIT Kd
T2 construct: made in house
T2 sequence (P10721 26-976): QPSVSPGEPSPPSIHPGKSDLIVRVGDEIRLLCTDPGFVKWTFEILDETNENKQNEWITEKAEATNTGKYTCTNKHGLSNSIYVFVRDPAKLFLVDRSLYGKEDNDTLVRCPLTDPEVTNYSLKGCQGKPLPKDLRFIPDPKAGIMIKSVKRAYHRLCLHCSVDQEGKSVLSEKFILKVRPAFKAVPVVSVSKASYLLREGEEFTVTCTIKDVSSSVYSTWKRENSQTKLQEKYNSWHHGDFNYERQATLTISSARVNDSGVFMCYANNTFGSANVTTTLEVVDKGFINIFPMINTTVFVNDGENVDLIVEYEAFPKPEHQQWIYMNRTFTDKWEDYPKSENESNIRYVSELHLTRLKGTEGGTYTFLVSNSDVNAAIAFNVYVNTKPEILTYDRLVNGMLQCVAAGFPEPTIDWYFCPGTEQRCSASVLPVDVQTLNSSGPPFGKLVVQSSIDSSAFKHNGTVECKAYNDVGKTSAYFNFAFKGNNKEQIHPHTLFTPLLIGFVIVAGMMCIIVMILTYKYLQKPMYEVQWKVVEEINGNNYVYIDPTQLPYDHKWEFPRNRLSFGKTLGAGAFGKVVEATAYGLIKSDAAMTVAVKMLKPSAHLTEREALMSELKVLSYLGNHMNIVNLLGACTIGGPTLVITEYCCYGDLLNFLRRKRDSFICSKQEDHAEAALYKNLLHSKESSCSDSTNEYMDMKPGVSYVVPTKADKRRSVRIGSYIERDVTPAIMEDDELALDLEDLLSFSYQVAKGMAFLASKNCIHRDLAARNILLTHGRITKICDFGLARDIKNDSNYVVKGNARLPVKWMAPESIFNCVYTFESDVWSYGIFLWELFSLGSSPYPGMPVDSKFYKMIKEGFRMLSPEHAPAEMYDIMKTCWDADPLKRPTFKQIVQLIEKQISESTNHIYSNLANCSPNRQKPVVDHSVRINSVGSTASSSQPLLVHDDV
Procedure, shortened: as §1

PDGFRβ = target: T3, PDGFRβ (Homo sapiens, UniProt P09619); test: Competition binding assay, PDGFRβ Kd
T3 construct: made in house
T3 sequence (P09619 33-1106): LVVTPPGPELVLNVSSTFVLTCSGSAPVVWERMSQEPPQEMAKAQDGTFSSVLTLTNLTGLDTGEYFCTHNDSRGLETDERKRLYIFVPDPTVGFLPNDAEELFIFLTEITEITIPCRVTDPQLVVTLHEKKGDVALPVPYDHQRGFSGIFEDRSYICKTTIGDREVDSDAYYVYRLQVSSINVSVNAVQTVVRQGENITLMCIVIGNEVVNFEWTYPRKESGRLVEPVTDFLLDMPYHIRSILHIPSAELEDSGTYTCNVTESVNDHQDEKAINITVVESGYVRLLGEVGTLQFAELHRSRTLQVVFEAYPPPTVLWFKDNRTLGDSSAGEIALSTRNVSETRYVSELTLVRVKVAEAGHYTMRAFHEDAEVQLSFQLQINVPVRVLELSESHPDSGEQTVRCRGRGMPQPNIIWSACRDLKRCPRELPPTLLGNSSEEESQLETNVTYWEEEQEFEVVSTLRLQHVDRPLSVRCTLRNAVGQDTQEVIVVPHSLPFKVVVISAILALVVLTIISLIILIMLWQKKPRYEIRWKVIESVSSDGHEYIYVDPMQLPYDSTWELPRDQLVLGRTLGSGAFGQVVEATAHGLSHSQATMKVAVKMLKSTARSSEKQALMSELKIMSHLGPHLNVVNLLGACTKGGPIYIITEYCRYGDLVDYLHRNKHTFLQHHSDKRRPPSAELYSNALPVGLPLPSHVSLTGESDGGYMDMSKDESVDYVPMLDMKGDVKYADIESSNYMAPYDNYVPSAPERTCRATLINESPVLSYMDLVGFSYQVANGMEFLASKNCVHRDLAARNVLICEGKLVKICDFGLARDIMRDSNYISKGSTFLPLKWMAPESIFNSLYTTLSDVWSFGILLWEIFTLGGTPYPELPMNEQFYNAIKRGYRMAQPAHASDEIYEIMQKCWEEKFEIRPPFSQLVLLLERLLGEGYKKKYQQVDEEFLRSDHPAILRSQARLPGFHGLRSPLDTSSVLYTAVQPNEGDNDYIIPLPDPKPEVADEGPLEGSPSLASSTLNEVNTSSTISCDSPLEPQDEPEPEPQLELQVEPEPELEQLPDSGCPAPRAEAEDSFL
Procedure, shortened: as §1

M-NFS-60 cells = test: M-NFS-60 cell proliferation assay (Alamar Blue); assay type: cell-based, mouse; details: Mus musculus, read-out: CSF1R M-NFS-60 CTB:IC50
Procedure, shortened: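 Alamar Blue reduction (3 h; 560/590 nm) measured viability after 72 h, 37 °C treatment with nine half-log compound concentrations at 0.5% DMSO. Cells: M-CSF-dependent (20 ng/mL) murine M-NFS-60 in RPMI plus 10% FBS. IC50s, averaged from duplicates, reflect half-maximal inhibition of proliferation relative to control.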

CSF1R [1] = target: T4, CSF1R (Homo sapiens, UniProt P07333); test: Competition binding assay, CSF1R Kd; set-up: made in house
T4 sequence (P07333 20-972): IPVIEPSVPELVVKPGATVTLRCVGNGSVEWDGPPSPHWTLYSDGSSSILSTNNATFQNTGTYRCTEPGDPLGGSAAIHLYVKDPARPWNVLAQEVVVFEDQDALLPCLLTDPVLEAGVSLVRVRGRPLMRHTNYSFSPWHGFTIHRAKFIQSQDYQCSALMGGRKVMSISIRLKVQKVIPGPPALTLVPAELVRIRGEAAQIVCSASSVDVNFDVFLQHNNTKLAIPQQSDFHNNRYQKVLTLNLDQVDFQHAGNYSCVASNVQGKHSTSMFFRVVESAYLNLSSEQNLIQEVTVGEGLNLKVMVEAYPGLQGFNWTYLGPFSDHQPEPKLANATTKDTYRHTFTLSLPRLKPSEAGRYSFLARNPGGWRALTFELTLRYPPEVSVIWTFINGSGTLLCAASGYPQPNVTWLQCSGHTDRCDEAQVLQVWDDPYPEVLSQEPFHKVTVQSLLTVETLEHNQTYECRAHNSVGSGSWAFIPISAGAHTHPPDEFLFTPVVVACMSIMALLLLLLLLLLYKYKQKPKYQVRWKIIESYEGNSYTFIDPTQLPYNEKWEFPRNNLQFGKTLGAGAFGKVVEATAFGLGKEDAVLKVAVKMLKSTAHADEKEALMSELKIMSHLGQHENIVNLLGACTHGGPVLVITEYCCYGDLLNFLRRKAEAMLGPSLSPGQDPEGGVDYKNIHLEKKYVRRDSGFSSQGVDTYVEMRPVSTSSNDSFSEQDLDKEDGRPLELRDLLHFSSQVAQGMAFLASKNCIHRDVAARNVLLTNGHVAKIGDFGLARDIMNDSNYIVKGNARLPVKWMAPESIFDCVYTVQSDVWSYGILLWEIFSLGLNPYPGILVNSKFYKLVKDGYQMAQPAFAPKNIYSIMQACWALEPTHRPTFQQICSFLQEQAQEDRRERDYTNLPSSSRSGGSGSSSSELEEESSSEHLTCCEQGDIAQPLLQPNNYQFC
Procedure, shortened: as §1

CSF1R [2] = target: T4, CSF1R; test: HEK293 CSF1R phosphorylation MSD assay; assay type: cell-based; set-up: expressed in transfected cells; host or cells: HEK293; details: read-out: HEK293 pCSF1R M-CSF MSD:IC50
Procedure, shortened: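 Ligand-induced CSF1R autophosphorylation was measured by MSD sandwich assay: CSF1R-FKBP from lysates captured via FK506, anti-phosphotyrosine readout. Cells were exposed to compound for 2 h (9-point, half-log, 0.5% DMSO) before 5 min 50 ng/mL M-CSF. Reported IC50 is the mean of duplicate-plate IC50s relative to DMSO control.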

[3] = 72 hours incubation, M-CSF 20 ng/mL
[4] = 2 h compound, human M-CSF 50 ng/mL for 5 min
[5] = HEK293 cells, M-CSF stimulated CSF1R phosphorylation, MSD

Row | Kd (FLT3) [µM] | Kd (KIT) [µM] | Kd (PDGFRβ) [µM] | Kd (CSF1R [1]) [µM] | IC50 (CSF1R [2]; [4]) [µM] | Kd (FLT3; competition binding) [µM] | Kd (KIT; competition binding) [µM] | Kd (PDGFRβ; competition binding) [µM] | Kd (CSF1R [1]; competition binding) [µM] | IC50 (CSF1R [2]; [5]) [µM] | SMILES | IC50 (M-NFS-60 cells; [3]) [µM] | IC50 (M-NFS-60 cells; M-NFS-60 cell proliferation) [µM]
1 | 0.2 to 1 | ≤ 0.1 | ≤ 0.05 | 0.005 to 0.02 | > 0.5 |  |  |  |  |  | O[C@@H]1CCCC[C@H]1Nc1nc2ccc(Cn3cnc4cc(-c5nn[nH]n5)cnc43)cc2s1 [Example 93, (1R,2R)-2-((6-((6-(2H-tetrazol-5-yl)-3H-imidazo[4,5-b]pyridin-3-yl)methyl)benzo[d]thiazol-2-yl)amino)cyclohexanol] | > 1.5 | 
2 |  |  |  |  |  | 0.2 to 1 | ≤ 0.1 | ≤ 0.05 | ≤ 0.005 | 0.05 to 0.2 | O[C@H]1CCCCC1Nc1nc2ccc(Cn3cnc4cc(F)cnc43)cc2s1 (stereo in doubt) [Example 213, (1S,2S)-2-((6-((6-fluoro-3H-imidazo[4,5-b]pyridin-3-yl)methyl)benzo[d]thiazol-2-yl)amino)cyclohexanol] |  | 0.05 to 0.4

Second part, the molecule before the results:

Row | SMILES | Kd (FLT3) [µM] | Kd (KIT) [µM] | Kd (PDGFRβ) [µM] | Kd (CSF1R [1]) [µM] | IC50 (CSF1R [2]; [4]) [µM] | Kd (FLT3; competition binding) [µM] | Kd (KIT; competition binding) [µM] | Kd (PDGFRβ; competition binding) [µM] | Kd (CSF1R [1]; competition binding) [µM] | IC50 (CSF1R [2]; [5]) [µM] | IC50 (M-NFS-60 cells; [3]) [µM] | IC50 (M-NFS-60 cells; M-NFS-60 cell proliferation) [µM]
3 | COc1cc2ncn(Cc3ccc4nc(NC5CCCCC5)sc4c3)c2cc1OC [Example 18, N-cyclohexyl-6-((5,6-dimethoxy-1H-benzo[d]imidazol-1-yl)methyl)benzo[d]thiazol-2-amine] | ≤ 0.2 | ≤ 0.1 | ≤ 0.05 | ≤ 0.005 | ≤ 0.05 |  |  |  |  |  | 0.05 to 0.4 | 
4 | COc1ccccc1Nc1nc2ccc(Cn3cnc4cc(F)cnc43)cc2s1 [Example 197, 6-((6-fluoro-3H-imidazo[4,5-b]pyridin-3-yl)methyl)-N-(2-methoxyphenyl)benzo[d]thiazol-2-amine] |  |  |  |  |  | > 5 | 0.1 to 0.5 | 0.05 to 0.5 | 0.005 to 0.02 | > 0.5 |  | 0.4 to 1.5
5 | COc1cc2ncn(Cc3ccc4nc(N(C)C5CCCCC5)sc4c3)c2cc1OC [Example 16, N-cyclohexyl-6-((5,6-dimethoxy-1H-benzo[d]imidazol-1-yl)methyl)-N-methylbenzo[d]thiazol-2-amine] | 0.2 to 1 | 0.1 to 0.5 | 0.5 to 2 | 0.02 to 0.05 | 0.2 to 0.5 |  |  |  |  |  | > 1.5 | 
